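A five-concentration, 48-hour dose response in 96-well plates underlies each endpoint, interpolated linearly between surrounding concentrations. Definition used: TGI = concentration required for complete inhibition of growth.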
Assays:
Assay in all cases: growth of human tumour cells (NCI), 48 h
786-0 renal = system: 786-0 renal
A498 renal = system: A498 renal
A549 NSCLC = system: A549 NSCLC
ACHN renal = system: ACHN renal
BT-549 breast = system: BT-549 breast
CAKI-1 renal = system: CAKI-1 renal
CCRF-CEM leukemia = system: CCRF-CEM leukemia
COLO 205 colon = system: COLO 205 colon
DU-145 prostate = system: DU-145 prostate
EKVX NSCLC = system: EKVX NSCLC
HCC-2998 colon = system: HCC-2998 colon
HCT-116 colon = system: HCT-116 colon
HCT-15 colon = system: HCT-15 colon
HL-60(TB) leukemia = system: HL-60(TB) leukemia
HOP-62 NSCLC = system: HOP-62 NSCLC
HOP-92 NSCLC = system: HOP-92 NSCLC
HS 578T breast = system: HS 578T breast
HT29 colon = system: HT29 colon
IGROV1 ovarian = system: IGROV1 ovarian
K-562 leukemia = system: K-562 leukemia
KM12 colon = system: KM12 colon
LOX IMVI melanoma = system: LOX IMVI melanoma
M14 melanoma = system: M14 melanoma
MALME-3M melanoma = system: MALME-3M melanoma
MCF7 breast = system: MCF7 breast
MDA-MB-231 breast = system: MDA-MB-231 breast
MDA-N = system: MDA-N
MOLT-4 leukemia = system: MOLT-4 leukemia
NCI-H226 lung = system: NCI-H226 lung
NCI-H23 lung = system: NCI-H23 lung
NCI-H460 lung = system: NCI-H460 lung
NCI-H522 lung = system: NCI-H522 lung
NCI/ADR-RES ovarian = system: NCI/ADR-RES ovarian
OVCAR-3 ovarian = system: OVCAR-3 ovarian
OVCAR-4 ovarian = system: OVCAR-4 ovarian
OVCAR-5 ovarian = system: OVCAR-5 ovarian
OVCAR-8 ovarian = system: OVCAR-8 ovarian
PC-3 prostate = system: PC-3 prostate
RPMI-8226 leukemia = system: RPMI-8226 leukemia
RXF 393 renal = system: RXF 393 renal
SF-268 CNS = system: SF-268 CNS
SF-295 CNS = system: SF-295 CNS
SF-539 CNS = system: SF-539 CNS
SK-MEL-2 melanoma = system: SK-MEL-2 melanoma
SK-MEL-28 melanoma = system: SK-MEL-28 melanoma
SK-MEL-5 melanoma = system: SK-MEL-5 melanoma
SK-OV-3 ovarian = system: SK-OV-3 ovarian
SN12C renal = system: SN12C renal
SNB-19 CNS = system: SNB-19 CNS
SNB-75 CNS = system: SNB-75 CNS
SR leukemia = system: SR leukemia
T-47D breast = system: T-47D breast
TK-10 renal = system: TK-10 renal
U251 CNS = system: U251 CNS
UACC-257 melanoma = system: UACC-257 melanoma
UACC-62 melanoma = system: UACC-62 melanoma
UO-31 renal = system: UO-31 renal
MDA-MB-435 = system: MDA-MB-435
SW-620 colon = system: SW-620 colon

Cc1ccc(/C=C/C(=O)c2c([O-])on[n+]2-c2ccccc2)cc1
TGI (786-0 renal): 3.78 µM | TGI (A498 renal): 17.9 µM | TGI (A549 NSCLC): 25 µM | TGI (ACHN renal): 3.55 µM | TGI (BT-549 breast): 6.09 µM | TGI (CAKI-1 renal): 3.87 µM | TGI (CCRF-CEM leukemia): > 100 µM | TGI (COLO 205 colon): 7.35 µM | TGI (DU-145 prostate): 8.41 µM | TGI (EKVX NSCLC): 14.6 µM | TGI (HCC-2998 colon): 4.15 µM | TGI (HCT-116 colon): 3.65 µM | TGI (HCT-15 colon): 4.68 µM | TGI (HL-60(TB) leukemia): 6.55 µM | TGI (HOP-62 NSCLC): 24.9 µM | TGI (HOP-92 NSCLC): 16.8 µM | TGI (HS 578T breast): > 25.8 µM | TGI (HT29 colon): 3.84 µM | TGI (IGROV1 ovarian): 8.67 µM | TGI (K-562 leukemia): > 100 µM | TGI (KM12 colon): 7.69 µM | TGI (LOX IMVI melanoma): 3.74 µM | TGI (M14 melanoma): 5.98 µM | TGI (MALME-3M melanoma): 98.3 µM | TGI (MCF7 breast): 19 µM | TGI (MDA-MB-231 breast): > 75.2 µM | TGI (MDA-N): > 26.3 µM | TGI (MOLT-4 leukemia): 6.64 µM | TGI (NCI-H226 lung): > 45.6 µM | TGI (NCI-H23 lung): 17.5 µM | TGI (NCI-H460 lung): 6.38 µM | TGI (NCI-H522 lung): 8.06 µM | TGI (NCI/ADR-RES ovarian): 7.11 µM | TGI (OVCAR-3 ovarian): 6.92 µM | TGI (OVCAR-4 ovarian): > 21.1 µM | TGI (OVCAR-5 ovarian): 15.5 µM | TGI (OVCAR-8 ovarian): 4.05 µM | TGI (PC-3 prostate): 17.2 µM | TGI (RPMI-8226 leukemia): 6.35 µM | TGI (RXF 393 renal): 3.65 µM | TGI (SF-268 CNS): > 37.5 µM | TGI (SF-295 CNS): > 46.4 µM | TGI (SF-539 CNS): 12.7 µM | TGI (SK-MEL-2 melanoma): 5.39 µM | TGI (SK-MEL-28 melanoma): 5.75 µM | TGI (SK-MEL-5 melanoma): > 32.5 µM | TGI (SK-OV-3 ovarian): > 100 µM | TGI (SN12C renal): 31.3 µM | TGI (SNB-19 CNS): > 33.5 µM | TGI (SNB-75 CNS): 4.87 µM | TGI (SR leukemia): > 27.5 µM | TGI (T-47D breast): 9.49 µM | TGI (TK-10 renal): 10.3 µM | TGI (U251 CNS): 10.7 µM | TGI (UACC-257 melanoma): 16 µM | TGI (UACC-62 melanoma): 3.12 µM | TGI (UO-31 renal): 6.24 µM

CCc1n[nH]c(=O)n1N1C(=O)C2CC=CCC2C1=O (stereo not drawn)
TGI (786-0 renal): > 100 µM | TGI (A498 renal): > 100 µM | TGI (A549 NSCLC): > 100 µM | TGI (ACHN renal): > 100 µM | TGI (BT-549 breast): > 100 µM | TGI (CAKI-1 renal): > 100 µM | TGI (CCRF-CEM leukemia): > 100 µM | TGI (COLO 205 colon): > 100 µM | TGI (EKVX NSCLC): > 100 µM | TGI (HCC-2998 colon): > 100 µM | TGI (HCT-116 colon): > 100 µM | TGI (HCT-15 colon): > 100 µM | TGI (HOP-62 NSCLC): > 100 µM | TGI (HOP-92 NSCLC): > 100 µM | TGI (HS 578T breast): > 100 µM | TGI (HT29 colon): > 100 µM | TGI (IGROV1 ovarian): > 100 µM | TGI (K-562 leukemia): > 100 µM | TGI (KM12 colon): > 100 µM | TGI (LOX IMVI melanoma): > 100 µM | TGI (M14 melanoma): > 100 µM | TGI (MALME-3M melanoma): > 100 µM | TGI (MCF7 breast): > 100 µM | TGI (MDA-MB-231 breast): > 100 µM | TGI (MDA-MB-435): > 100 µM | TGI (MDA-N): > 100 µM | TGI (MOLT-4 leukemia): > 100 µM | TGI (NCI-H226 lung): > 100 µM | TGI (NCI-H23 lung): > 100 µM | TGI (NCI-H460 lung): > 100 µM | TGI (NCI-H522 lung): > 100 µM | TGI (NCI/ADR-RES ovarian): > 100 µM | TGI (OVCAR-3 ovarian): > 100 µM | TGI (OVCAR-4 ovarian): > 100 µM | TGI (OVCAR-5 ovarian): > 100 µM | TGI (OVCAR-8 ovarian): > 100 µM | TGI (PC-3 prostate): > 100 µM | TGI (RPMI-8226 leukemia): > 100 µM | TGI (RXF 393 renal): > 100 µM | TGI (SF-268 CNS): > 100 µM | TGI (SF-295 CNS): > 100 µM | TGI (SF-539 CNS): > 100 µM | TGI (SK-MEL-2 melanoma): > 100 µM | TGI (SK-MEL-5 melanoma): > 100 µM | TGI (SK-OV-3 ovarian): > 100 µM | TGI (SN12C renal): > 100 µM | TGI (SNB-19 CNS): > 100 µM | TGI (SNB-75 CNS): > 100 µM | TGI (SR leukemia): > 100 µM | TGI (SW-620 colon): > 100 µM | TGI (T-47D breast): > 100 µM | TGI (TK-10 renal): > 100 µM | TGI (U251 CNS): > 100 µM | TGI (UACC-257 melanoma): > 100 µM | TGI (UACC-62 melanoma): > 100 µM | TGI (UO-31 renal): > 100 µM
